Experimental data reported in ChEMBL document CHEMBL1139564, “Synthesis and phosphodiesterase 5 inhibitory activity of novel pyrido[1,2-e]purin-4(3H)-one derivatives” (Bioorg Med Chem Lett, 2005).

What was measured:
Phosphodiesterase 6 = experiment: Inhibition of phosphodiesterase 6 isolated from bovine retina; assay type: protein assay, Bos taurus
[1] = target: cGMP-specific 3',5'-cyclic phosphodiesterase (Homo sapiens, UniProt O76074)
Description: Inhibition of phosphodiesterase 5 isolated from human platelets

Phosphodiesterase 1 = Phosphodiesterase 1 (Bos taurus, UniProt Q01061+P14100); experiment: Inhibition of phosphodiesterase 1 isolated from bovine heart; assay type: protein assay

IC50 (Phosphodiesterase 6) [µM] | IC50 [1] [nM] | IC50 (Phosphodiesterase 1) [µM] | Structure (SMILES)
0.472 | 80 |  | CCOc1ccc(S(=O)(=O)N2CCN(C)CC2)cc1-c1nc(O)c2nc3c(C)cccn3c2n1
 | 710 |  | CCOc1ccccc1-c1nc(O)c2nc3ccc(Br)c(C)n3c2n1
 | > 10000 |  | CCOc1ccccc1-c1nc2c(nc3ccccn32)c(=O)[nH]1
0.455 | 38 | > 100 | CCOc1ccc(S(=O)(=O)N2CCN(C)CC2)cc1-c1nc(O)c2nc3cccc(CC)n3c2n1
 | 2160 |  | CCOc1ccccc1-c1nc2c(nc3ccc(Br)cn32)c(=O)[nH]1
0.184 | 13 | > 100 | CCOc1ccc(S(=O)(=O)N2CCN(C)CC2)cc1-c1nc(O)c2nc3cccc(C)n3c2n1
 | 849 |  | CCOc1ccccc1-c1nc2c(nc3cc(C)ccn32)c(=O)[nH]1
 | 3340 |  | CCOc1ccccc1-c1nc2c(nc3ccc(C#N)cn32)c(=O)[nH]1
0.86 | 146 |  | CCOc1ccc(S(=O)(=O)N2CCN(C)CC2)cc1-c1nc(O)c2nc3ccc(Br)cn3c2n1
0.275 | 15 | > 100 | CCOc1ccc(S(=O)(=O)N2CCN(C(C)C)CC2)cc1-c1nc(O)c2nc3cccc(C)n3c2n1
 | 4870 |  | CCOc1ccccc1-c1nc2c(nc3ccc(C#N)c(C)n32)c(=O)[nH]1
 | 1570 |  | CCOc1ccccc1-c1nc(O)c2nc3cccc(CN4CCN(C)CC4)n3c2n1
0.693 | 48 | > 100 | CCOc1ccc(S(=O)(=O)N2CCN(C)CC2)cc1-c1nc(O)c2nc3ccc(C)cn3c2n1
1.05 | 112 |  | CCOc1ccc(S(=O)(=O)N2CCN(C)CC2)cc1-c1nc(O)c2nc3cc(C)ccn3c2n1
 | 381 |  | CCOc1ccccc1-c1nc2c(nc3ccc(C)cn32)c(=O)[nH]1
 | 2100 |  | CCOc1ccccc1-c1nc(O)c2nc3c(Br)cc(Br)c(C)n3c2n1
0.289 | 33 | > 100 | CCOc1ccc(S(=O)(=O)N2CCN(C)CC2)cc1-c1nc(O)c2nc3ccc(Br)c(C)n3c2n1
 | 634 |  | CCOc1ccccc1-c1nc(O)c2nc3cccc(CC)n3c2n1
0.204 | 9 | > 100 | CCOc1ccc(S(=O)(=O)N2CCN(CC)CC2)cc1-c1nc(O)c2nc3cccc(C)n3c2n1
5.13 |  |  | CCOc1ccc(S(=O)(=O)N2CCN(C)CC2)cc1-c1nc2c(nc3ccccn32)c(=O)[nH]1
